“And” between values parts separate entries of the source, which are not always exact repeats. Equal values may be shown once. Read-outs that look alike come from different tables or passages of the source.
How the values were obtained:
[1] = Clinical observations and body weights after prochlorperazine administration in dogs; format: in vivo; settings: dog
[2] = humans; reported; cited from earlier work
in vivo = settings: female, mongrel, dog, 7 mg; for AUC(0-t): AUC0-10 min; for bioavailability: F, based on venous AUCinf
Protocol: The objective of this study was to determine the concentration of prochlorperazine in dog plasma processed from whole blood taken from both the left ventricle and venous circulation immediately following administration of prochlorperazine aerosol to the animal by way of the thermal aerosol generation process described herein, during a single deep inhalation.
This study consisted of four young adult, female, mongrel dogs. The animals were treated with the test article, prochlorperazine (PCZ), in three separate surgical/dosing sessions. In sessions 1 and 3, the test article was administered intravenously (IV), either via a 120-second infusion (Session 1) or as a five-second bolus (Session 3). In session 2, the test article was administered using a thermal aerosol generation process, during a single deep inhalation. Following treatment in each surgical/dosing session, blood samples were collected from the left ventricle and from a peripheral vein for bioanalysis. Left ventricular and venous plasma samples were obtained prior to drug administration. In addition, left ventricular plasma samples were obtained every five seconds during the first 30 seconds following drug administration, as well as frequently thereafter, with the last left ventricular sample collected 10 minutes following drug administration. Venous plasma samples were obtained from 15 seconds to 24 hours following drug administration. Clinical observations and body weights were recorded for all animals at specified time points.
The animals were treated in three separate surgical/dosing sessions. For each session, the animals were appropriately anesthetized prior to administration of the test article. Each surgical/dosing session was separated by a washout period of approximately 48 hours from the time of the previous treatment administration.
Session 1: While the animals were anesthetized, the test article (1.4 mL of 5 mg/mL prochloperazine edisylate injection) was administered as a 120-second intravenous (IV) manual infusion via a saphenous vein. Blood sampling commenced at the time of initiation of infusion (t=0).
Session 2: While the animals were anesthetized, an aerosol generation and administration system was connected in-line to an endotracheal tube to allow for delivery of the aerosol test article (prochlorperazine coated on a chemical, single dose heat package). The aerosol resulting from actuation of the prochlorperazine by the aerosol generation and administration system was administered during a single deep inhalation. Blood sampling commenced at the time of initiation of the deep inhalation (t=0).
Session 3: While the animals were anesthetized, the test article (1.4 mL of 5 mg/mL prochloperazine edisylate injection) was administered as a five-second IV bolus via a saphenous vein. Blood sampling commenced at the time of initiation of the bolus (t=0).
Each animal was premedicated with atropine sulfate (0.02 mg/kg, intramuscularly) and acepromazine (0.2 mg/kg, IM, to a maximum dose of 3 mg) prior to induction of anesthesia. At least 10 minutes later, the animal was anesthetized with Propofol(4-8 mg/kg, intravenously). The animal was then intubated and maintained in anesthesia with isoflurane inhalant anesthetic, delivered through a volume-regulated ventilator. An intravenous catheter was placed in a peripheral vessel for administration of lactated Ringer's solution during the procedure at a rate of approximately 5 mL/kg/hr.
A midline incision was made in the neck and one of the carotid arteries was exposed. The artery was mobilized a distance of about 5 cm and two Vessel-Loops® were placed around it, proximally and distally.

[3] = Pharmacokinetics of aerosolized alprazolam in dog (left ventricular and venous plasma) vs IV bolus; format: in vivo; settings: for AUC(0-t) / bioavailability / Cmax / Tmax / AUC / half-life: female, mongrel, 0.7 mg; for AUC(0-t): venous plasma; for Tmax: median
Protocol: (§1) This study consisted of five young adult, female, mongrel dogs. Four animals per session were treated with the test article, alprazolam, in two separate surgical/dosing sessions. In Session 1 the test article was administered intravenously (IV) as a 5-second bolus. […] The animals were dosed at a level of 0.7 mg of alprazolam in both dosing sessions.
Four animals per session were treated with the test article, alprazolam, in two separate surgical/dosing sessions. The animals were dosed at a level of 0.7 mg of alprazolam in both dosing sessions.
Anesthesia was performed substantially as described in Example 1.
Whole blood samples were centrifuged. […] All plasma samples were stored until analyzed. […] Plasma samples were mixed with spiking solutions of alprazolam, α-hydroxyalprazolam, 4-hydroxyalprazolam and an internal standard (alprazolam-d5). […] Drug or metabolite concentrations were calculated by comparing (drug or metabolite)/internal standard ratios to standard curves prepared in dog plasma.
Individual plasma concentration-time data from four animals, two sampling sites, and two dose routes were analyzed by noncompartmental pharmacokinetic methods via WinNonlin using nominal time points. Areas were calculated using the linear trapezoidal rule.

[4] = Clinical observations and body weights after alprazolam administration in dogs; format: in vivo; settings: dog
Protocol: as §1

[5] = dog left ventricular plasma, IV bolus
[6] = dog venous plasma, 7 mg, 2-min IV infusion
[7] = dog venous plasma, 7 mg, IV bolus
[8] = dog venous plasma, 7 mg, aerosol inhalation
[9] = left ventricular plasma, inhaled or intranasal, dog left ventricular plasma, aerosol inhalation
[10] = left ventricular plasma, iv, dog left ventricular plasma, 2-min IV infusion
[11] = left ventricular plasma, iv, dog left ventricular plasma, IV bolus
[12] = venous plasma, iv, dog venous plasma, 2-min IV infusion
[13] = venous plasma, iv, dog venous plasma, IV bolus
[14] = inhaled or intranasal, dog left ventricular plasma, aerosol inhalation
[15] = inhaled or intranasal, dog venous plasma, aerosol inhalation

SMILES: CN1CCN(CCCN2c3ccccc3Sc3ccc(Cl)cc32)CC1 [PCZ, prochlorperazine]
- adverse effects by clinical observations ([1]; 7 mg IV infusion, aerosol, IV bolus sessions): no adverse effects
- body weights between treatment sessions ([1]; all animals): maintained
- Cmax (dog left ventricular plasma, 7 mg, 2-min IV infusion): 1365.3 ± 396.2 ng/mL
- Cmax (dog left ventricular plasma, 7 mg, IV bolus): 3481.8 ± 787.2 ng/mL
- Cmax (dog left ventricular plasma, 7 mg, aerosol inhalation): 3261.5 ± 974.8 ng/mL
- Cmax (dog left ventricular plasma, 7 mg, aerosol inhalation, listed as prochlorperazine): 3261 ng/mL
- time of maximum left ventricular concentration [5]: 30 s
- time of maximum left ventricular concentration (dog left ventricular plasma, aerosol inhalation): 20 s
- AUC0-10 min [6]: 32.2 ± 21.1 ng·h/mL
- AUCinf [6]: 229.9 ± 35.7 ng·h/mL
- Tlast [6]: 8.0 ± 0.0 h
- Cmax (dog venous plasma, 7 mg, 2-min IV infusion, mean ± SD): 441.8 ± 269.9 ng/mL
- AUC0-10 min [7]: 63.4 ± 15.7 ng·h/mL
- AUCinf [7]: 305.1 ± 59.3 ng·h/mL
- Tlast [7]: 8.0 ± 0.0 h
- AUC0-10 min [8]: 56.5 ± 10.6 ng·h/mL
- AUCinf [8]: 250.4 ± 58.2 ng·h/mL
- Tlast [8]: 6.0 ± 2.3 h
- Vd [8]: 2.6 ± 1.1 L/kg
- Cmax (dog venous plasma, 7 mg, thermal aerosol single deep inhalation, mean ± SD): 886.5 ± 268.3 ng/mL
- mean maximum concentration, left ventricular plasma relative to venous plasma (dog, 2-minute IV infusion): approximately 3 fold
- venous plasma concentration at time points after 8 hr (undetectable levels) (dog, 2-minute IV infusion): < 2 ng/mL
- peak concentration in left ventricular plasma relative to 2-minute IV infusion (dog, aerosol and IV bolus treatments): approximately 2.5 fold
- F, aerosol bioavailability to IV infusion (dog, based on venous AUCinf, 7 mg aerosol vs 2-min IV infusion): 108.7±19% and 108.9 ± 19.2%
- F, aerosol bioavailability to IV bolus (dog, based on venous AUCinf, 7 mg aerosol vs IV bolus): 82.1 ± 13.1%
- (ventricular) spike index for inhalation (dog, left ventricular Cmax aerosol divided by Cmax 2-min IV infusion): 2.4
- oral bioavailability [2]: 12.5%
- Tmax (in vivo; left ventricular and venous plasma, iv, dog left ventricular and venous plasma, 2-minute IV infusion): 1.25 to 3 min
- AUC(0-t) (in vivo; [9]): 89.1 ± 13.7 ng·h/mL
- Cmax (in vivo; [9]): 3260 ± 975 ng/mL
- Tmax (in vivo; [9]): 0.33 min
- AUC(0-t) (in vivo; [10]): 88.5 ± 25.7 ng·h/mL
- AUC(0-t) (in vivo; [11]): 98.3 ± 15 ng·h/mL
- Cmax (in vivo; [10]): 1360 ± 396 ng/mL
- Cmax (in vivo; [11]): 3480 ± 767 ng/mL
- Tmax (in vivo; [10]): 1.9 min
- Tmax (in vivo; [11]): 0.5 min
- Cmax (in vivo; venous plasma, inhaled or intranasal, dog venous plasma, thermal aerosol single deep inhalation, mean ± SD): 886 ± 268 ng/mL
- half-life (in vivo; venous plasma, inhaled or intranasal, Half-Life, dog venous plasma, aerosol inhalation): 76.2 ± 17.4 min
- Tmax (in vivo; venous plasma, inhaled or intranasal, dog venous plasma, aerosol inhalation): 1 min
- bioavailability (in vivo; venous plasma, inhaled, aerosol bioavailability to IV bolus, 7 mg aerosol vs IV bolus): 82%
- bioavailability (in vivo; venous plasma, inhaled, aerosol bioavailability to IV infusion, 7 mg aerosol vs 2-min IV infusion): 109%
- clearance (in vivo; venous plasma, intravenous, inhaled, mean clearances, dog venous, span over the three groups): 18.9 to 24.8 mL/min/kg
- half-life (in vivo; venous plasma, intravenous, inhaled, mean half-lives, dog venous, span over the three groups): 76.2 to 105 min
- clearance (in vivo; venous plasma, iv, CL, dog venous plasma, 2-min IV infusion): 24.8 mL/min/kg
- clearance (in vivo; venous plasma, iv, CL, dog venous plasma, IV bolus): 18.9 ± 3.6 mL/min/kg
- Cmax (in vivo; venous plasma, iv, dog venous plasma, 2-min IV infusion, mean ± SD): 442 ± 270 ng/mL
- Cmax (in vivo; venous plasma, iv, dog venous plasma, 5-second IV bolus, mean ± SD): 1300 ± 1260 ng/mL
- half-life (in vivo; venous plasma, iv, Half-Life, dog venous plasma, 2-min IV infusion): 105 ± 9.6 min
- half-life (in vivo; venous plasma, iv, Half-Life, dog venous plasma, IV bolus): 82.2 ± 6 min
- Tmax (in vivo; [12]): 2.5 min
- Tmax (in vivo; [13]): 1.1 min
- Vd (in vivo; [12]): 3.8 L/kg
- Vd (in vivo; [13]): 2.3 ± 0.6 L/kg

SMILES: Cc1nnc2n1-c1ccc(Cl)cc1C(c1ccccc1)=NC2 [alprazolam]
- last time concentrations measurable (last sampling time) ([3]; dog left ventricle plasma, all cases): 10 min
- median time through which concentrations were measurable ([3]; dog venous plasma, IV dosing): 240 min
- median time through which concentrations were measurable ([3]; dog venous plasma, inhalation dosing): 360 min
- mean Cmax for left ventricle plasma relative to venous plasma ([3]; dog, both routes of administration): ~7 fold
- mean Cmax after inhalation as percentage of values after intravenous dosing ([3]; dog, left ventricle and venous plasma): approximately 70%
- bioavailability based upon mean AUC (n=4) by each route ([3]; dog, left ventricle sampling): 81.5%
- bioavailability based upon mean AUC (n=4) by each route ([3]; dog, systemic plasma): 94.9%
- AUC(0-t) ([3]; dog, inhaled or intranasal, dog venous plasma, aerosol inhalation, read-out: AUC0-240 (converted)): 38.3 ng·h/mL
- AUC(0-t) ([3]; dog, inhaled or intranasal, dog venous plasma, aerosol inhalation, read-out: AUClast (converted)): 43.3 ng·h/mL
- AUC(0-t) ([3]; dog, iv, dog venous plasma, IV bolus, read-out: AUC0-240 (converted)): 42.3 ng·h/mL
- AUC(0-t) ([3]; dog, iv, dog venous plasma, IV bolus, read-out: AUClast (converted)): 45.3 ng·h/mL
- bioavailability ([3]; inhaled or intranasal, dog, based on AUC for venous plasma, n=3, read-out: F, mean bioavailability for inhalation administration): 95.5%
- Cmax [3, 14]: 676 ± 99.5 ng/mL
- Tmax [3, 14]: 0.25 min
- AUC [3, 15]: 49.7 ng·h/mL
- Cmax ([3]; inhaled or intranasal, dog venous plasma, aerosol inhalation, mean ± SD, n=4): 102 ± 57.2 ng/mL
- Tmax [3, 15]: 0.5 min
- half-life ([3]; inhaled or intranasal, dog venous plasma, aerosol inhalation, read-out: Half-Life): 115 ± 12.9 min
- half-life ([3]; intravenous, inhaled, dog venous plasma, both routes, read-out: mean terminal elimination half-life): ~110 min
- bioavailability ([3]; left ventricular plasma, inhaled or intranasal, dog, based on AUC for left ventricle plasma, three animals, read-out: mean bioavailability for inhalation administration): 85%
- half-life ([3]; left ventricular plasma, intravenous, inhaled, dog left ventricle plasma, both routes, read-out: mean terminal elimination half-life): ~4 min
- Cmax [3, 5]: 967 ± 303 ng/mL
- Tmax [3, 5]: 0.42 min
- Cmax ([3]; dog venous plasma, 5-second IV bolus, mean ± SD, n=4): 147 ± 93.5 ng/mL
- AUC ([3]; dog venous plasma, IV bolus): 52.3 ng·h/mL
- Tmax ([3]; dog venous plasma, IV bolus): 0.75 min
- half-life ([3]; dog venous plasma, IV bolus, read-out: Half-Life): 106 ± 22 min
- body weight change between treatment sessions [4]: no remarkable change
- adverse effects by clinical observations ([4]; 0.7 mg IV bolus and aerosol sessions): no adverse effects
